Drawing on a melting point compilation (Tetko et al.; mined from patent text by program, amines drawn as free bases though some values may be those of a salt), this text covers melting point for 92 compounds.

In turn, `c1cnc2[nH]cc(CN3CCN(c4ccc5c(c4)OCO5)CC3)c2c1` yielded a melting point of 196 to 199 °C.

With `O=C(O)C(c1ccc(Cl)cc1)c1c(Cl)cc(-n2ncc(=O)[nH]c2=O)cc1Cl` (configuration not stated), the melting point amounted to 220 °C.

With `C=COCCn1c(CN2CCN(C)CC2)nc2ccccc21`, the melting point lay in the range of 65.5 to 67.5 °C.

With `Cc1ccc(-c2nc(C(F)(F)F)nc(NN)c2-c2ccccc2)cc1`, the melting point lay within 188 to 191 °C.

Turning to `CC1(C(=O)c2c[nH]c3ncc(Br)nc23)CCCCC1`, the melting point lay in the range of 198 to 199 °C.

As for `COc1ccc(F)c(C(=O)O)c1`, the melting point was 144 to 146 °C.

With `O=C1c2ccc(C#Cc3ccccc3)cc2C(=O)N1c1ccc2c(c1)C=C2`, the melting point is 194 to 195 °C.

In the case of `OC(c1ccc(F)cc1)(c1ccc(F)cc1)C1CCN(CCCOc2ccc(-c3ccccc3)cc2)CC1`, the melting point fell in the range of 108 to 109 °C.

In turn, `CC(C(=O)O)=C(NC(=O)C(F)(F)F)c1ccccc1` displayed a melting point of 140 °C.

The compound `C=Cc1ccc(NN2C(=O)c3ccccc3C2=O)cc1` yielded a melting point of 174 to 176 °C.

Consider `COC(=O)Cc1cc2ccc(OC)cc2[nH]c1=O`, for which the melting point lay in the range of 195 to 196 °C.

In turn, `O=C(C#Cc1ccc(Cl)cc1)Nc1ccc2c(ccn2CCN2CCCC2)c1` registered a melting point of 127 to 129 °C.

Turning to `Cc1ccc(C)c(-c2ccc(S(=O)(=O)N3c4ccccc4CC3C(=O)NCCOc3ccc(CC(=O)O)cc3)cc2)c1` (configuration not stated), the melting point was in the range of 81 to 84 °C.

For the compound `CC(=O)NCCCC(C)C1CC=C2C3=C(CCC21C)C1(C)CCC(O)C(C)(C)C1CC3` (configuration not stated), the melting point was 219 to 221 °C.

The compound `Nc1nc(-c2ccc(F)cc2)c(CC(=O)O)s1` came in with a melting point of 267 to 268 °C.

`CC(C)c1ccc2c(c1)OC1(O)c3cccc(O)c3C(=O)C21O` (configuration not stated): the melting point lay within 205 to 207 °C.

As for `COC1(c2nc(Sc3ccc(/C(C)=N/O)cc3)cs2)CCOCC1`, the melting point stood at 89 °C.

As to `O=S(=O)(NCCCn1cncn1)c1ccc(Cl)cc1`, the melting point lay within 77 to 79 °C.

Consider `NC(=S)CCn1nc(-c2ccccc2)ccc1=O`, for which the melting point fell in the range of 173 to 175 °C.

As for `CNc1c2oc3ccccc3c2nn1C`, the melting point is 154 to 156 °C.

`CC(=O)c1c(CCc2ccc(F)cc2)[nH]c2ccc(Cl)cc12` showed a melting point of 170 to 172 °C.

`COc1ccc2c(c1)c(Cc1csc(-c3ccncc3)n1)c(C)n2C(=O)c1ccc(Cl)cc1`: the melting point lay within 109 to 114 °C.

Compound `CCOC(=O)c1cnc2c(F)c(Br)c(F)cc2c1O` gave a melting point of 285 °C.

Take `COC(=O)c1cccn1Cc1ccccc1[N+](=O)[O-]`: the melting point lay within 105 to 107 °C.

In turn, `c1cc(CN2CCCCC2)cc(OCCCNc2ncnc3ccccc23)c1` yielded a melting point of 111 °C.

Consider `CCOC(=O)Nc1cc(OC2CCCC2)c(Cl)cc1F`, for which the melting point fell in the range of 92.8 to 97.8 °C.

Consider `Cc1cc(C(=O)N2CCCC2)ccc1Br`, for which the melting point fell in the range of 55 to 57 °C.

The compound `O=S(=O)(Nc1nccs1)c1ccc(Nc2nc(OCC3CCCCC3)c3nc[nH]c3n2)cc1` showed a melting point of 152 to 154 °C.

`Cc1c(C)c2c(c(C)c1NC(=O)c1ccc(F)cc1)C(c1ccccc1)C(C)(C)O2` (configuration not stated) came in with a melting point of 156 to 158 °C.

`CN(C)C=NC1CCN(Cc2ccccc2)CC1` registered a melting point of 61 to 65 °C.

Take `COc1cccc2nc(C(F)(F)F)oc(=O)c12`: the melting point was 88 to 91 °C.

Consider `Nc1cccc(-c2ccc(CCN3CCN(CCc4ccccc4)CC3)cc2)n1`, for which the melting point was 111 to 113 °C.

For the compound `COC12CC(CO)CN(C)C1Cc1cn(C(C)(C)C)c3cccc2c13` (configuration not stated), the melting point is 172 to 174 °C.

`O=c1[nH]c2ncc(-c3ccc(-n4cccn4)cc3)nc2n1CCC1CCOCC1` came in with a melting point of 294 to 296 °C.

Compound `COc1cccc(OC)c1C(=O)Nc1nnc(-c2ccc(Cl)cc2)s1` yielded a melting point of 238 to 240 °C.

On to `COC(=O)Nc1nc(-c2ccccc2)c(-c2nc3ccccc3c(=O)n2-c2ccc(OC)cc2)s1`, for which the melting point was 272 to 274 °C.

Compound `CCOC(=O)C1=C(O)CCn2c1nc1ccccc12` yielded a melting point of 233 to 235 °C.

`CCOC(=O)CC1C(=O)N(CCc2c[nH]c3cc(C)ccc23)CCN1C(=O)c1ccccc1` (configuration not stated) showed a melting point of 155 °C.

`N#CC(Cc1ccccn1)(C(N)=O)c1ccc([N+](=O)[O-])cc1` (configuration not stated) returned a melting point of 79 to 81 °C.

On to `CCCCNc1cc(-c2c(-c3cccc(C)c3)nc3cccnn23)ccn1`, for which the melting point was in the range of 128 to 129 °C.

`Cc1ccc(C2CCN(C(=O)CCC(=O)c3ccc4c(c3)CCN(C)CC4)CC2)cc1` yielded a melting point of 111 to 112 °C.

With `Cc1ccc(N2CCN(Cc3c[nH]c4ncccc34)CC2)nc1`, the melting point is 204 to 205 °C.

On to `CCC(=O)N1c2ccccc2NC(=O)c2cscc21`, for which the melting point was in the range of 222 to 224 °C.

Turning to `Cc1c(CC(=O)OCCO[N+](=O)[O-])cc(-c2ccc(S(C)(=O)=O)cc2)n1-c1ccccc1`, the melting point was in the range of 124 to 126 °C.

Compound `NC1(CCC(O)(P(=O)(O)O)P(=O)(O)O)CCCCC1` showed a melting point of 143 °C.

With `O=S(Cc1ccccc1)C1CCN(Cc2ccccc2)CC1` (racemic), the melting point was found to be 123 °C.

In turn, `O=c1[nH]c2cc3ccccc3cc2nc1-c1cc(O)c(O)c([N+](=O)[O-])c1` showed a melting point greater than 300 °C.

For the compound `CC(C)c1nc2c(c(-c3ccc(F)cc3)c1C(C)O)CCC2(C)C` (configuration not stated), the melting point was 90 to 92 °C.

As to `CNc1nc2ccc(Cc3ccccn3)cc2s1`, the melting point lay within 118 to 121 °C.

`CCCCCCCCCCCC(OO)OOC(CCCCCCCCCCC)OO` (configuration not stated): the melting point is 56 to 58 °C.

For the compound `Cn1cc(-c2cc3cccnc3[nH]2)c2cc(OCC(=O)O)ccc21`, the melting point is greater than 300 °C.

The compound `O=C(O)c1ccccc1N1CCN(CC(O)COc2cccc3[nH]ccc23)CC1` (configuration not stated) yielded a melting point of 163 to 165 °C.

On to `O=C1CCC(c2ccccc2)(c2ccccc2)[C@@H]2CN(C(=O)Cc3cccs3)C[C@H]12` (racemic), for which the melting point was determined as 206 °C.

Take `CN1CC(C(=O)COC(=O)C(C)(C)C)CC2c3cccc4[nH]cc(c34)CC21` (configuration not stated): the melting point was in the range of 155 to 156 °C.

In turn, `O=c1oc(-c2ccccc2)cc(O)c1C(Sc1ccccc1)c1ccc2ccccc2c1` (configuration not stated) had a melting point of 98 to 101 °C.

For the compound `N#CN=CNC1c2ccccc2CC2CCCCC21` (configuration not stated), the melting point was in the range of 145 to 165 °C.

The compound `O=C(O)c1ccccc1C(=O)c1ccc(Cl)cc1Cl` yielded a melting point of 178 to 181 °C.

Compound `CCOC(=O)c1cn(-c2nc(N)c(F)cc2F)c2c(F)c(F)c(F)c(N)c2c1=O` yielded a melting point of 225 to 230 °C.

As to `O=C(OCc1ccccc1)[C@@H](Cc1ccccc1)NS(=O)(=O)c1ccc2ccccc2c1`, the melting point worked out at 107 °C.

The compound `CNc1cc(F)ccc1C(=O)CSC` gave a melting point of 61.5 to 63 °C.

For `O=S=c1cc(-c2ccc(Cl)cc2)ss1`, the melting point fell in the range of 123 to 125 °C.

In turn, `O=C(NCc1cccc(F)c1)NNC(=O)c1ccc2c(c1)CCO2` returned a melting point of 200 to 201 °C.

Compound `CCCCn1c(=O)n(C)c(=O)c2nn(S(=O)(=O)CCCCl)cc21` had a melting point of 105 to 106 °C.

Turning to `CN(c1cccc2cc(-c3nccs3)[nH]c12)S(=O)(=O)c1cccnc1Cl`, the melting point turned out to be 203 °C.

Compound `COc1ccnc(CSCCN=C(NC#N)SC)c1` registered a melting point of 91.5 to 92.5 °C.

In the case of `Cc1ccc2cccc(OCc3c(Cl)ccc(S(=O)(=O)N4CCCC4C(=O)NCCCCCO)c3Cl)c2n1` (configuration not stated), the melting point stood at 64 °C.

As for `COc1ccc(S(=O)(=O)c2cc(O)c(O)cc2C)cc1NC(C)=O`, the melting point fell in the range of 230 to 232 °C.

`CC1(C)C=Cc2c(c3ccccc3[nH]c2=O)O1` gave a melting point of 174 to 177 °C.

In turn, `O=c1cc(-c2nnn[nH]2)oc2c(/C=C/c3ccc(OCCCCc4ccc(F)cc4)cc3)cccc12` showed a melting point of 174 to 175 °C.

As for `Nc1nc(N)c2[nH]c(C3OC(CO)C(O)C3O)nc2n1` (configuration not stated), the melting point lay within 234 to 237 °C.

With `COc1ccc(C(=C(c2ccc(C#N)cc2)n2ccnc2)c2ccc(OC)cc2)cc1`, the melting point is 174 to 176 °C.

`OCc1ccc2oc(-c3ccc(O)cc3)cc2c1` yielded a melting point of 248 to 250 °C.

In the case of `Cc1[nH]c(=O)sc1C#N`, the melting point lay in the range of 180 to 181 °C.

`N#Cc1ccc(-c2csc(NCCO)n2)cc1` had a melting point of 80 to 82 °C.

Compound `CCOC(=O)C(C)(NC(C)=O)C(=O)OCC` gave a melting point of 89 to 90 °C.

In turn, `C#CCN1CCC(C(C)(C)C)CC1` registered a melting point of 48 to 49 °C.

In the case of `Cc1nn2cccnc2c1C#N`, the melting point lay in the range of 179 to 181 °C.

In turn, `COC(=O)C1=C(C)NC2=C(C(=O)CN(Cc3ccccc3)C2)C1c1ccccc1C(F)(F)F` (configuration not stated) displayed a melting point of 225 to 227 °C.

Turning to `Cc1noc(C(=O)NC(C)(C)C)c1C(N)=O`, the melting point was 155 to 158 °C.

The compound `O=c1c(Br)cc(Cc2ccccc2)cn1Cc1ccccc1` yielded a melting point of 89 to 90 °C.

For the compound `c1ccc(CN(Cc2ccccc2)c2nccc(-c3ccc(-c4ccc(N(c5ccccc5)c5ccccc5)cc4)cc3)n2)cc1`, the melting point lay in the range of 164 to 165 °C.

As for `COc1ccc(-c2c3c(cc4ccc5c(c24)OCO5)C(=O)OC3)cc1`, the melting point was 217 to 219 °C.

For `Fc1ccc(-c2[nH]cc(C3=CC4CCC(C3)N4)c2-c2ccncc2)cc1` (configuration not stated), the melting point lay in the range of 212 to 213 °C.

In turn, `CC(C#N)c1ccc(O)c(N)c1` (configuration not stated) came in with a melting point of 110 to 112 °C.

In turn, `CCOC(=O)c1cnc2ccc(CC)cc2c1O` came in with a melting point greater than 260 °C.

Turning to `CCOC(=O)/C(=C\Nc1cc(C)cc(C)c1)c1ccc(OC)cc1`, the melting point fell in the range of 93 to 94 °C.

Regarding `CC(CCCCO)Oc1c(I)cc(I)cc1I` (configuration not stated), the melting point was 79 to 80 °C.

The compound `Clc1nc(SCc2ccccc2)nc2nc[nH]c12` displayed a melting point of 176 to 178 °C.

`Cc1cccc(C)c1NC(=O)CCS(=O)c1cc(C(C)(C)C)c(O)c(C(C)(C)C)c1` (configuration not stated) had a melting point of 162 to 164 °C.

The compound `COc1cc2ncnc(N3CCN(C(=O)NCCc4ccc(Br)cc4)CC3)c2cc1OC` returned a melting point of 174 to 175 °C.

`c1ccc(Nc2nc3c(s2)CCc2[nH]ncc2-3)nc1` came in with a melting point of 297 to 299 °C.

The compound `COc1cc(C=Nc2cc(Cl)c(N=CN(C)C)c(Cl)c2)cc(OC)c1` came in with a melting point of 133 to 135 °C.
